Here are results for six molecules from US20060276385A1, “Anti-inflammatory agents and methods of their use” (priority 2003, published 2006).

Assay [1] deals with ICAM-1. Description: ICAM-1 surface expression by FACS analysis in HAEC. It is filed as cell-based, human. Conditions: for BMP4-induced ICAM-1 expression in presence of ROS scavenger: HAEC transfected with BMP4; for effect on OS-induced ICAM-1 expression: HAEC exposed to OS 1 day, PEG-catalase or Tiron included during shear. The method, then: (§1) Endothelial cells: Mouse aortic endothelial cells (MAEC) were cultured and used at passages 4-8 as described (Cai, H., et al. (2002) J Bio Chem 107, 48311-48317). Human aortic endothelial cells (HAEC) purchased from Clonetics were cultured using EGM-2 bullet kit (Clonetics) and used at passages 4-8. Alternatively, endothelial cells obtained from the thoracic aortas of C57/BL6 control (MAE-wt) and p47^phox-null mice (MAE-p47^−/−) were isolated and cultured as described previously (Hwang, J. et al. (2003) J Biol Chem 278:47291-8), and used between passages 4-10.
(§2) Shear stress studies: Confluent endothelial monolayers grown in 100 mm tissue culture dishes were exposed to an arterial level of uni-directional LS (15 dyn/cm^2) in the growth medium by rotating a Teflon cone (0.5° cone angle) as described previously. To mimic unstable shear conditions in vivo, endothelial cells were exposed to OS with directional changes of flow at 1 Hz cycle (±5 dyn/cm^2) by rotating the cone back-and-forth using a stepping motor (Servo Motor) and a computer program (DC Motor Company, Atlanta, Ga.). In some studies, 5 dyn/cm^2 unidirectional LS was used for comparison to OS (±5 dyn/cm^2).
(§3) Fluorescence activated cytometry sorting (FACS) analysis: Treated cells were dissociated into single cell suspensions using 0.25% trypsin-EDTA and resuspended in a FACS buffer (Hank's buffered solution containing 5% FBS). Aliquots of cell suspensions were incubated with ICAM-1 antibody (R&D Systems) for 20 min on ice, washed twice with FACS buffer, and incubated with secondary antibody (fluorescein-5-isothiocyanate- or phycoerytherin-conjugated, Chemicon) for 20 min on ice in the dark. Then samples were washed again, fixed in 1% paraformaldehyde and analyzed by FACS (Calibur, Becton-Dickinson) using CellQuest software. The fluorescence intensity of ICAM-1 and forward cell scattering of 30,000 cells were measured and the geometric means calculated from histograms were shown. In some studies, HAEC were transfected with either BMP4 cloned in a bi-cistronic pAdTrack CMV vector or an empty vector, both expressing green fluorescent protein (GFP), using Lipofectamine 2000. In these experiments, ICAM-1 expression was measured in the red phycoerytherin channel, while the green channel was used to monitor the […] expression-GFP expression was determined by FACS analysis and fluorescence microscopy (20-30% transfection efficiency). Because expression of GFP was similar among different treatment groups within the same experiment, it was unnecessary to normalize ICAM-1 expression data to GFP level. Human recombinant noggin was purchased from R&D Systems and used in all experiments at 50 ng/ml (Dale, L., and Jones, C. M. (1999) Bioessays 21, 751-760; Zimmerman, L. B., et al. (1996) Cell 86, 599-606; Brunei, L. J., et al. (1998) Science 280, 1455-1457).
(In flow cytometry, cells or beads pass a laser one at a time.)

Assay [2] deals with MAEC. Description: Monocyte adhesion: THP-1 monocytes bound to mouse aortic endothelial cells. The settings on record: for effect on BMP4-induced monocyte adhesion: MAE-wt, BMP4 20 ng/ml 18 hrs, YN1 5 μg/ml last 30 min, PEG-catalase 100 U/ml 18 hrs or Tiron 10 μmol/L 1 hr pre-incubation. The format is cell-based. On the procedure: as §1, §2
(§4) Monocyte Adhesion: Monocyte binding was determined under no-flow conditions using THP-1 monocytes (ATCC) by the method described by Chappel et al (Chappell, D. C., et al. (1998) Circ Res 82, 532-539). Briefly, THP-1 cells (5×10^5 cells/ml) were labeled with a fluorescent dye 2′,7′-bis(carboxyethyl)-5(6)-carboxyfluorescein-AM (BCECF, Molecular Probes) (1 mg/ml) in serum-free RPMI medium for 45 min at 37° C. Following exposure to shear stress or BMP treatments in the presence or absence of noggin or vehicle, the endothelial cells were washed in RPMI medium before adding BCECF-loaded THP-1 cells (1:1 ratio). After a 30 min incubation at 37° C. under no-flow conditions, unbound monocytes were removed by washing the endothelial dishes 5 times with Hank's PBS. Bound monocytes were quantified by either counting the cells under a fluorescent microscope or by measuring the fluorescent intensity of cell lysates by fluorescence spectrophotometry using a plate reader. […] Some studies were performed with MAEC pretreated with 5 μg/ml of mouse-ICAM1 antibody (YN1, Southern Biolechonology) (Kevil, C. G., et al. (2001) Am J Physiol Cell Physiol 281, C1442-1447).
In FIG. 7B, confluent MAE-wt cells were pre-incubated with cell-permeable PEG-catalase (Catalase, 100 U/ml for 18 hrs) or Tiron (10 μmol/L for 1 hr). Cells were then incubated with 20 ng/ml BMP4 or vehicle for additional 18 hrs. The treated cells in 7A and 7B were washed, and fluorescently-labeled THP-1 monocytes were added. Unbound THP-1 cells were washed after 30 min, and bound monocytes were counted with a fluorescence microscope using a 10× objective (5-10 different fields per dish). […] As a positive control, monocyte binding was determined using MAE-wt treated with TNF-α(100 U/ml for 2hrs).

In assay [3] the test system is E-selectin. Description: E-selectin surface expression by FACS analysis in HAEC. The format is cell-based, human. Conditions: TNF-α 100 U/ml for 2 hr as positive control. On the procedure: Fluorescence activated cytometry sorting (FACS) analysis: Treated cells were dissociated into single cell suspensions using 0.25% trypsin-EDTA and resuspended in a FACS buffer (Hank's buffered solution containing 5% FBS). Aliquots of cell suspensions were incubated with ICAM-1 antibody (R&D Systems) for 20 min on ice, washed twice with FACS buffer, and incubated with secondary antibody (fluorescein-5-isothiocyanate- or phycoerytherin-conjugated, Chemicon) for 20 min on ice in the dark. Then samples were washed again, fixed in 1% paraformaldehyde and analyzed by FACS (Calibur, Becton-Dickinson) using CellQuest software. The fluorescence intensity of ICAM-1 and forward cell scattering of 30,000 cells were measured and the geometric means calculated from histograms were shown. […] In these experiments, ICAM-1 expression was measured in the red phycoerytherin channel, while the green channel was used to monitor the […] expression-GFP expression was determined by FACS analysis and fluorescence microscopy (20-30% transfection efficiency). […]
(§5) HAEC treated with OS, BMP4 or static condition were analyzed by FACS using antibodies specific to VCAM-1 (C) and E-selectin (D) as described in panel A using TNFa (1OOU/ml, for 2 hr) as a positive control.

The test system of assay [4] is VCAM-1. Description: VCAM-1 expression in endothelial cells. It is filed as cell-based, human. Conditions: HAEC, FACS; TNF-α 100 U/ml for 2 hr as positive control. The method, then:
as §3, §5

Assay [5] concerns MAE-p47−/− cells. Description: Monocyte adhesion to p47phox-null endothelial cells, with or without p47phox transfection. It is filed as cell-based, mouse. The settings on record: MAE-p47−/− cells transfected with p47phox (rescued); BMP4 20 ng/ml or TNF-α 100 U/ml, 18 hrs. The method, then:
as §1, §4
Transfection of p47phox: In some studies MAE-p47^−/− cells were trasnfected withp47phox expression vector or an empty vector as described (Hwang, J. et al. (2003) J Biol Chem278-47291-8).
Next, monocyte adhesion was determined in these cells. […] After 18 hrs, cells were washed and monocyte binding was determined as described in FIG. 7. […]

Assay [6] relates to MAE-wt cells. Description: O2− assay by electron spin resonance spectroscopy with CMH spin probe. It is filed as cell-based, mouse. The settings on record: MAE-wt exposed to OS for 1 day, noggin during OS exposure. The method, then: O2^− Assay: O2^− production was determined by electron spin resonance spectroscopy using methoxycarbonyl-2,2,5,5-tetramethyl-pyrrolidine (CMH) as a spin probe in the presence or absence of PEG-superoxide dismutase (PEG-SOD; 50 U/ml) to quantify the SOD-inhibitable portions of CM.
In FIG. 10A immediately following treatment of MAE wt cells with BMP4 (200 ng/ml) for 18 hrs, cells were trypsinized and reconstituted in Krebs-Hepes buffer. Equal number of cells was incubated with a spin trap CMH in the presence or absence of PEG-SOD (50 U/mL). The specific O2^− production was calculated by subtracting SOD-inhibitable portions from total O2^− production as determined by following CM production (mean±SEM, n=3, *p<0.05).

For assay [7], the system named is MAE-wt cells. Description: H2O2 assay by oxidation of DCF-DA. The format is cell-based, mouse. Conditions: PEG-catalase 100 U/ml for 1 day before and during BMP4 treatment. On the procedure:
H2O2 assay: Cells grown in 6-well plates were treated with BMP4 or vehicle control for 18 hrs in the presence or absence of cell-permeable polyethylene glycol (PEG)-catalase (100 U/ml). Cells were then washed once with Hepes buffered saline solution (HBSS) followed by incubation with 7.5 μg/ml 2′, 7′-dichlorofluorescein diacetate (DCF-DA, Molecular Probes) in HBSS for 1 hr at 37 C° in the dark. Cells were washed with HBSS, incubated further for an additional 40 min in HBSS, and the DCF fluorescence intensities were measured in a Cytofluor Multi-Well plate reader (excitation at 475 nm and emission at 525 nm).
In addition, BMP4 stimulated production of H2O2 by 70% above control as determined by oxidation of DCF-DA (FIG. 10B). […] The cells were washed, incubated with DCF-DA, and the fluorescent intensities determined by fluorometry. Shown is a mean±SEM (n=3, p<0.05). In this assay, a redox cycling menadione (10 μM) was used as positive control (data not shown).

Residues, ends and D or L forms follow the SMILES beside them. *: point of attachment. Cbz = O=C(OCc1ccccc1)*

As to `CC(C)C[C@@H](C=O)NC(=O)[C@H](CC(C)C)NC(=O)[C@H](CC(C)C)NC(=O)OCc1ccccc1` [MG132, reference compound] (Cbz-Leu-Leu-Leu-aldehyde), the “effect on ICAM-1 expression induced by BMP4” value in assay [1] (HAEC, in the presence of NF-κB translocation inhibitor, inactive peptide or proteosome inhibitor) was “completely prevented”.

As for `CC(=O)N[C@@H](CS)C(=O)O` [N-Acetyl-cysteine, reference compound], the “BMP4-induced ICAM-1 expression in presence of ROS scavenger” value in assay [1] is 23 % of control.

Regarding `O=S(=O)(O)c1cc(O)c(O)c(S(=O)(=O)O)c1` [Tiron, reference compound], the “effect on BMP4-induced monocyte adhesion” value in assay [2] was “completely blocked”. Besides, the “effect on OS-induced ICAM-1 expression” value in assay [1] (noggin 50 ng/ml) is on record as “completely prevented”.

On to TNF-α [reference compound], for which the “effect on surface expression of E-selectin” value in assay [3] is “strongly increased”. Also, the “effect on surface expression of VCAM-1” value in assay [4] is “strongly increased”. The “ICAM-1 expression above control cells” value in assay [1] (HAEC, TNF-α 100 U/ml for 2 hr) fell in the range of 4 to 5 fold. Besides, in assay [5], the “increase in monocyte adhesion above the control” value was “approximately 4 fold”.

B1: noggin (protein, UniProt Q13253 28-232, looked up)
Noggin: QHYLHIRPAPSDNLPLVDLIEHPDPIFDPKEKDLNETLLRSLLGGHYDPGFMATSPPEDRPGGGGGAAGGAEDLAELDQLLRQRPSGAMPSEIKGLEFSEGLAQGKKQRLSKKLRRKLQMWLWSQTFCPVLYAWNDLGSRFWPRYVKVGSCFSKRSCSVPEGMVCKPSKSVHLTVLRWRCQRRGGQRCGWIPIQYPIISECKCSC
notes: natural BMP antagonist
Turning to B1, the “effect on OS-induced monocyte adhesion” value in assay [2] (MAEC, OS 24 hr, noggin 50 ng/ml) was “inhibited OS-induced monocyte adhesion”. Besides, the “effect on OS-induced O2− increase” value in assay [6] is “virtually blocked”. In addition, in assay [1] (noggin 50 ng/ml), the “effect on OS-induced ICAM-1 expression” value is recorded as “completely inhibited”. Besides, in assay [1] (HAEC, TNF-α 100 U/ml for 6 hr, noggin 50 ng/ml), the “effect on TNF-α-induced ICAM-1 expression” value was “did not affect”.

B2: PEG-catalase: cell-permeable polyethylene glycol-catalase converting H2O2 to H2O, 100 U/ml (protein, UniProt P00432 2-527, looked up)
Catalase: ADNRDPASDQMKHWKEQRAAQKPDVLTTGGGNPVGDKLNSLTVGPRGPLLVQDVVFTDEMAHFDRERIPERVVHAKGAGAFGYFEVTHDITRYSKAKVFEHIGKRTPIAVRFSTVAGESGSADTVRDPRGFAVKFYTEDGNWDLVGNNTPIFFIRDALLFPSFIHSQKRNPQTHLKDPDMVWDFWSLRPESLHQVSFLFSDRGIPDGHRHMNGYGSHTFKLVNANGEAVYCKFHYKTDQGIKNLSVEDAARLAHEDPDYGLRDLFNAIATGNYPSWTLYIQVMTFSEAEIFPFNPFDLTKVWPHGDYPLIPVGKLVLNRNPVNYFAEVEQLAFDPSNMPPGIEPSPDKMLQGRLFAYPDTHRHRLGPNYLQIPVNCPYRARVANYQRDGPMCMMDNQGGAPNYYPNSFSAPEHQPSALEHRTHFSGDVQRFNSANDDNVTQVRTFYLKVLNEEQRKRLCENIAGHLKDAQLFIQKKAVKNFSDVHPEYGSRIQALLDKYNEEKPKNAVHTYVQHGSHLSAREKANL
modifications: PEG conjugated
notes: cell-permeable polyethylene glycol-catalase converting H2O2 to H2O, 100 U/ml
For the molecule B2, the “effect on BMP4-induced monocyte adhesion” value in assay [2] is on record as “completely blocked”. Moreover, the “effect on BMP-dependent H2O2 production” value in assay [7] was “completely blocked”. Moreover, in assay [1] (noggin 50 ng/ml), the “effect on OS-induced ICAM-1 expression” value is reported as “completely prevented”. Moreover, in assay [1], the “BMP4-induced ICAM-1 expression in presence of ROS scavenger” value was 26 % of control.
